In the assay the test system is AKR/Lw mice, AKR lymphoma ip, median survival T/C. Description: NCI In Vivo Anticancer Drug Screen. Data for tumor model Lymphoma AKR (Transplanted) (intraperitoneal) in AKR/Lw mice. The note with it: endpoint: median survival time; dose: 100.0 mg/kg/injection; schedule: Q01DX001 (ip); vehicle: saline; higher = longer survival. The procedure:
The antitumor activity of compounds was measured in mice bearing transplantable tumors. Survival or tumor size were measured and the results are expressed as the measurement made in the treated group (T) divided by the measurement made in the vehicle treated control group (C). The tumor model used in this assay is Lymphoma AKR (Transplanted) (intraperitoneal) in AKR/Lw mice

SMILES strings stand for the structures. Toxic doses and inconclusive results are not listed.

As for `CC(C)(CCCl)NCc1ccccc1`, the T/C was 102 % of control.

Source of the values: PubChem BioAssay AID190 (DTP/NCI, 2004).
